# Experimental data from patent publication US10328077B2 (CELGENE CORPORATION, priority 2016, dated 2019).
# Experiments:
# [1] = molecular target: human LSD-1 (Homo sapiens (Human), UniProt O60341); test: In vitro enzyme inhibition assay LSD-1 (TR-FRET); format: biochemical; details: TR-FRET, H3K4me1-biotin labeled peptide
# Excerpt: This assay determines the ability of a test compound to inhibit LSD-1 demethylase activity.
# The enzymatic assay of LSD-1 activity is based on Time Resolved-Fluorescence Resonance Energy Transfer (TR-FRET) detection.
# [2] = tested on: CD11b expression in THP-1 (AML) cells; test: LSD-1 CD11b cellular assay (flow cytometry); details: Homo sapiens, THP-1, 96 h, read-out: THP-1 IC50
IC50 [1] [nM],IC50 [2] [nM],Structure (SMILES)
< 100,< 100,"CN(C)c1ccc(-c2c(-c3ccc(C#N)cc3)nc(N3CCCNCC3)n(C)c2=O)cn1 [Example 67, 4-[2-[1,4]diazepan-1-yl-5-(6-dimethylamino-pyridin-3-yl)-1-methyl-6-oxo-1,6-dihydro-pyrimidin-4-yl]-benzonitrile]"
< 100,< 100,"CN(C)c1ccc(-c2c(-c3ccc(C#N)c(F)c3)nc(N3CCC(N)CC3)n(C)c2=O)cn1 [Example 57, 4-[2-(4-amino-piperidin-1-yl)-5-(6-dimethylamino-pyridin-3-yl)-1-methyl-6-oxo-1,6-dihydro-pyrimidin-4-yl]-2-fluoro-benzonitrile]"
< 100,< 100,"Cn1c(N2CCC(N)CC2)nc(-c2ccc(C#N)c(F)c2)c(-c2cc(F)cc(F)c2)c1=O [Example 103, 4-[2-(4-aminopiperidin-1-yl)-5-(3,5-difluorophenyl)-1-methyl-6-oxopyrimidin-4-yl]-2-fluorobenzonitrile]"
< 100,< 100,"Cn1cc2cc(-c3c(-c4ccc(C#N)c(F)c4)nc(N4CCC(N)CC4)n(C)c3=O)ccc2n1 [Example 37, 4-[2-(4-aminopiperidyl)-1-methyl-5-(2-methyl(2H-indazol-5-yl))-6-oxohydropyrimidin-4-yl]-2-fluorobenzenecarbonitrile]"
< 100,< 100,"COc1ccc(-c2c(-c3ccc(C#N)c(F)c3)nc(N(C)C[C@@H]3CCNC3)n(C)c2=O)cc1 (stereo in doubt) [Example 56, 2-fluoro-4-[5-(4-methoxy-phenyl)-1-methyl-2-(methyl-pyrrolidin-3-ylmethyl-amino)-6-oxo-1,6-dihydro-pyrimidin-4-yl]-benzonitrile]"
< 100,< 100,"COc1ccc(-c2c(-c3ccc(C#N)c(F)c3)nc(N3CC[C@H](N)[C@H](F)C3)n(C)c2=O)cc1 [Example 79, 4-[2-((4S, 3R)-4-amino-3-fluoro-piperidin-1-yl)-5-(4-methoxy-phenyl)-1-methyl-6-oxo-1,6-dihydro-pyrimidin-4-yl]-2-fluoro-benzonitrile]"
< 100,< 100,"Cn1c(N2CCC(N)CC2)nc(-c2ccc(C#N)c(F)c2)c(-c2ccc(N3CCOCC3)nc2)c1=O [Example 68, 4-[2-(4-amino-piperidin-1-yl)-1-methyl-5-(6-morpholin-4-yl-pyridin-3-yl)-6-oxo-1,6-dihydro-pyrimidin-4-yl]-2-fluoro-benzonitrile]"
< 100,< 100,"Cn1c(N2CCC(N)CC2)nc(-c2ccc(C#N)c(F)c2)c(-c2ccc(F)c(F)c2)c1=O [Example 104, 4-[2-(4-aminopiperidin-1-yl)-5-(3,4-difluorophenyl)-1-methyl-6-oxopyrimidin-4-yl]-2-fluorobenzonitrile]"
< 100,< 100,"CCOc1ccc(-c2c(-c3ccc(C#N)c(F)c3)nc(N3CCC(N)CC3)n(C)c2=O)cn1 [Example 94, 4-[2-(4-aminopiperidin-1-yl)-5-(6-ethoxypyridin-3-yl)-1-methyl-6-oxopyrimidin-4-yl]-2-fluorobenzonitrile]"
< 100,< 100,"CNCC1CN(c2nc(-c3ccc(C#N)c(F)c3)c(-c3ccc(OC)cc3)c(=O)n2C)C1 [Example 70, 2-fluoro-4-[5-(4-methoxy-phenyl)-1-methyl-2-(3-methylaminomethyl-azetidin-1-yl)-6-oxo-1,6-dihydro-pyrimidin-4-yl]-benzonitrile]"
< 100,< 100,"COc1ccc(-c2c(-c3ccc(C#N)c(F)c3)nc(N3CCC(N)CC3)[nH]c2=O)cc1 [Example 122, 4-[2-(4-aminopiperidin-1-yl)-5-(4-methoxyphenyl)-6-oxo-1H-pyrimidin-4-yl]-2-fluorobenzonitrile]"
< 100,< 100,"COc1ccc(-c2c(-c3ccc(C#N)c(F)c3)nc(N(C)C[C@H]3CCNC3)n(C)c2=O)cc1 [Example 54, 2-fluoro-4-[5-(4-methoxy-phenyl)-1-methyl-2-(methyl-(3S)-pyrrolidin-3-ylmethyl-amino)-6-oxo-1,6-dihydro-pyrimidin-4-yl]-benzonitrile]"
< 100,< 100,"Cn1c(N2CCC(N)CC2)nc(-c2ccc(C#N)cc2)c(-c2ccc(OCCO)cc2)c1=O [Example 97, 4-[2-(4-aminopiperidin-1-yl)-5-[4-(2-hydroxyethoxy)phenyl]-1-methyl-6-oxopyrimidin-4-yl]benzonitrile]"
< 100,< 100,"Cn1c(N2CCC(N)CC2)nc(-c2ccc(C#N)c(F)c2)c(-c2ccc(OCCO)cc2)c1=O [Example 96, 4-[2-(4-aminopiperidin-1-yl)-5-[4-(2-hydroxyethoxy)phenyl]-1-methyl-6-oxopyrimidin-4-yl]-2-fluorobenzonitrile]"
< 100,< 100,"COc1ccc(-c2c(-c3ccc(C#N)c(F)c3)nc(N3CCC4(CCNC4)CC3)n(C)c2=O)cc1F [Example 22, 4-[2-(2,8-diaza-spiro[4.5]dec-8-yl)-5-(3-fluoro-4-methoxy-phenyl)-1-methyl-6-oxo-1,6-dihydro-pyrimidin-4-yl]-2-fluorobenzonitrile]"
< 100,< 100,"COc1ccc(-c2c(-c3ccc(C#N)c(F)c3)nc(N3CC[C@@H](N)[C@@H](F)C3)n(C)c2=O)cc1 [Example 78, 4-[2-((4R, 3S)-4-amino-3-fluoro-piperidin-1-yl)-5-(4-methoxy-phenyl)-1-methyl-6-oxo-1,6-dihydro-pyrimidin-4-yl]-2-fluoro-benzonitrile]"
< 100,< 100,"CN(C)C1CCN(c2nc(-c3ccc(C#N)c(F)c3)c(-c3ccc4cn[nH]c4c3)c(=O)n2C)CC1 [Example 84, 4-[2-(4-dimethylamino-piperidin-1-yl)-5-(2H-indazol-6-yl)-1-methyl-6-oxo-1,6-dihydro-pyrimidin-4-yl]-2-fluoro-benzonitrile]"
< 100,< 100,"CCOc1ccc(-c2c(-c3ccc(C#N)c(F)c3)nc(N3CCC(N)CC3)n(C)c2=O)cc1 [Example 95, 4-[2-(4-aminopiperidin-1-yl)-5-(4-ethoxyphenyl)-1-methyl-6-oxopyrimidin-4-yl]-2-fluorobenzonitrile]"
< 100,< 100,"CN(C)C1CCN(c2nc(-c3ccc(C#N)c(F)c3)c(-c3ccc4c(cnn4C)c3)c(=O)n2C)CC1 [Example 72, 4-[2-(4-dimethylamino-piperidin-1-yl)-1-methyl-5-(1-methyl-1H-indazol-5-yl)-6-oxo-1,6-dihydro-pyrimidin-4-yl]-2-fluoro-benzonitrile]"
< 100,< 100,"COc1ccc(-c2c(-c3ccc(C#N)c(F)c3)nc(N3CCC[C@@H](N)C3)n(C)c2=O)cc1 [Example 30, 4-[2-((3R)-3-aminopiperidyl)-5-(4-methoxyphenyl)-1-methyl-6-oxohydro-pyrimidin-4-yl]-2-fluorobenzenecarbonitrile]"
< 100,< 100,"Cn1c(N2CCC(N)CC2)nc(-c2ccc(C#N)c(F)c2)c(-c2ccc(N)cc2)c1=O [Example 89, 4-[5-(4-aminophenyl)-2-(4-aminopiperidin-1-yl)-1-methyl-6-oxopyrimidin-4-yl]-2-fluorobenzonitrile]"
< 100,< 100,"CNC1CCN(c2nc(-c3ccc(C#N)c(F)c3)c(-c3ccc(OC)cc3)c(=O)n2C)CC1 [Example 11, 2-fluoro-4-[5-(4-methoxy-phenyl)-1-methyl-2-(4-methylamino-piperidin-1-yl)-6-oxo-1,6-dihydro-pyrimidin-4-yl]-benzonitrile]"
–,< 100,"Cn1c(N2CCC(N)CC2)nc(-c2ccc(C#N)c(F)c2)c(-c2ccc3cc[nH]c3c2)c1=O [Example 75, 4-[2-(4-amino-piperidin-1-yl)-5-(1H-indol-6-yl)-1-methyl-6-oxo-1,6-dihydro-pyrimidin-4-yl]-2-fluoro-benzonitrile]"
–,< 100,"Cn1c(N2CCC(N)CC2)nc(-c2ccc(C#N)cc2)c(-c2ccc3c(cnn3C)c2)c1=O [Example 33, 4-[2-(4-aminopiperidyl)-1-methyl-5-(1-methyl(1H-indazol-5-yl))-6-oxohydropyrimidin-4-yl]benzenecarbonitrile]"
–,< 100,"Cn1c(N2CCC(N)CC2)nc(-c2ccc(C#N)c(F)c2)c(-c2ccc(C(F)(F)F)nc2)c1=O [Example 23, 4-{2-(4-aminopiperidyl)-1-methyl-6-oxo-5-[6-(trifluoromethyl) (3-pyridyl)] hydropyrimidin-4-yl}-2-fluorobenzenecarbonitrile]"

Structure (SMILES),IC50 [1] [nM],IC50 [2] [nM]
"COc1ccc(-c2c(-c3ccc(C#N)c(F)c3)nc(N3CC[C@H](N)C3)n(C)c2=O)cc1F [Example 29, 4-[2-((3S)-3-amino-pyrrolidin-1-yl)-5-(3-fluoro-4-methoxy-phenyl)-1-methyl-6-oxo-1,6-dihydro-pyrimidin-4-yl]-2-fluoro-benzonitrile]",< 100,100 to 1000
"Cn1c(N2CCC(N)CC2)nc(-c2ccc(C#N)c(F)c2)c(-c2ccc3c(c2)CNC3=O)c1=O [Example 42, 4-[2-(4-amino-piperidin-1-yl)-1-methyl-6-oxo-5-(1-oxo-2,3-dihydro-1H-isoindol-5-yl)-1,6-dihydro-pyrimidin-4-yl]-2-fluoro-benzonitrile]",< 100,100 to 1000
"COc1ccc(-c2c(-c3ccc(Cl)c(F)c3)nc(N3CCC(N)CC3)n(C)c2=O)cc1 [Example 111, 2-(4-amino-piperidin-1-yl)-6-(4-chloro-3-fluoro-phenyl)-5-(4-methoxy-phenyl)-3-methyl-3H-pyrimidin-4-one]",–,100 to 1000
"COc1ccc(-c2c(-c3ccc(C#N)cc3)nc(N3CCC(N)CC3)n(C)c2=O)cc1 [Example 2, 4-[2-(4-amino-piperidin-1-yl)-5-(4-methoxy-phenyl)-1-methyl-6-oxo-1,6-dihydro-pyrimidin-4-yl]-benzonitrile]",–,< 100
